Laboratory results as given in US20250223268A1, “4-Methylsulfonylbenzamide Compound, Preparation Method, Herbicidal Composition And Use” (Jiangsu Flag Chemical Industry Co., Ltd., priority 2022, published 2025).

Experiments:
Assay type in all cases: in vivo
[1] = tested on: Leptochloa chinensis; test: Greenhouse herbicidal activity and crop safety comparison (Test Example 2); settings: Rate 150 g/ha
Method in brief: (§1)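 Fresh weight inhibition, banded into grades A to E (E <20%), was rated 14-21 days after foliar spraying of 3-6 leaf plants, or 14-30 days after a soil spray applied 24 h post-sowing.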

[2] = tested on: Oryza sativa subsp. japonica; test: as above; settings: Rate 150 g/ha
Method in brief: as §1

[3] = tested on: Echinochloa crusgalli; test: as above; settings: Rate 150 g/ha
Method in brief: as §1

[4] = tested on: Oryza sativa subsp. indica; test: as above; settings: Rate 150 g/ha
Method in brief: as §1

[5] = tested on: Leptochloa chinensis; test: Greenhouse herbicidal activity assay, post-emergence; settings: Post-emergence test, rate 150 g a.i./hm^2; grade by fresh weight inhibition rate
Method in brief: (§2)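 Foliar spray at 3-6 leaves; pot-grown in nutrient soil in growth chamber; air-dried post-spray. Read-out at 14-21 d: fresh weight inhibition, graded A (≥80% to 100%) down to E (<20%); NT = not tested.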

[6] = tested on: Echinochloa crusgalli; test: as above; settings: Post-emergence test, rate 150 g a.i./hm^2; grade by fresh weight inhibition rate
Method in brief: as §2

[7] = tested on: Cyperus iria; test: as above; settings: Post-emergence test, rate 150 g a.i./hm^2; grade by fresh weight inhibition rate
Method in brief: as §2

[8] = tested on: Digitaria sanguinalis; test: as above; settings: Post-emergence test, rate 150 g a.i./hm^2; grade by fresh weight inhibition rate
Method in brief: as §2

[9] = tested on: Eclipta prostrata; test: as above; settings: Post-emergence test, rate 150 g a.i./hm^2; grade by fresh weight inhibition rate
Method in brief: as §2

Structure (SMILES) | Leptochloa chinensis, control efficacy grading (fresh weight inhibition rate) [1] | Oryza sativa subsp. japonica, grading of fresh weight inhibition rate (crop safety) [2] | Echinochloa crusgalli, control efficacy grading (fresh weight inhibition rate) [3] | Oryza sativa subsp. indica, grading of fresh weight inhibition rate (crop safety) [4] | Control efficacy grade, Leptochloa chinensis [5] | Control efficacy grade, Echinochloa crusgalli [6] | Control efficacy grade, Cyperus iria [7] | Control efficacy grade, Digitaria sanguinalis [8] | Control efficacy grade, Eclipta prostrata [9]
CS(=O)(=O)c1ccc(C(=O)Nc2nnco2)c(Cl)c1S(=O)(=O)C1CCC1 [Compound 3-312] | A (Fresh weight inhibition rate≥80% to 100%) | E (Fresh weight inhibition rate<20%) | A (Fresh weight inhibition rate≥80% to 100%) | E (Fresh weight inhibition rate<20%) | A (Fresh weight inhibition rate≥80% to 100%) | A (Fresh weight inhibition rate≥80% to 100%) | A (Fresh weight inhibition rate≥80% to 100%) | A (Fresh weight inhibition rate≥80% to 100%) | A (Fresh weight inhibition rate≥80% to 100%)
CCCS(=O)(=O)c1c(S(C)(=O)=O)ccc(C(=O)Nc2nnc(C3CC3)o2)c1Cl [Compound 3-619] | A (Fresh weight inhibition rate≥80% to 100%) | E (Fresh weight inhibition rate<20%) | A (Fresh weight inhibition rate≥80% to 100%) | E (Fresh weight inhibition rate<20%) | A (Fresh weight inhibition rate≥80% to 100%) | A (Fresh weight inhibition rate≥80% to 100%) | A (Fresh weight inhibition rate≥80% to 100%) | A (Fresh weight inhibition rate≥80% to 100%) | A (Fresh weight inhibition rate≥80% to 100%)
CS(=O)(=O)c1ccc(C(=O)Nc2nnco2)c(Cl)c1S(=O)(=O)CC1CC1 [Compound 3-302] | A (Fresh weight inhibition rate≥80% to 100%) | E (Fresh weight inhibition rate<20%) | A (Fresh weight inhibition rate≥80% to 100%) | E (Fresh weight inhibition rate<20%) | A (Fresh weight inhibition rate≥80% to 100%) | A (Fresh weight inhibition rate≥80% to 100%) | A (Fresh weight inhibition rate≥80% to 100%) | A (Fresh weight inhibition rate≥80% to 100%) | A (Fresh weight inhibition rate≥80% to 100%)
Cc1nnc(NC(=O)c2ccc(S(C)(=O)=O)c(S(=O)(=O)CC3CC3)c2Cl)o1 [Compound 3-41] | A (Fresh weight inhibition rate≥80% to 100%) | E (Fresh weight inhibition rate<20%) | A (Fresh weight inhibition rate≥80% to 100%) | E (Fresh weight inhibition rate<20%) | A (Fresh weight inhibition rate≥80% to 100%) | A (Fresh weight inhibition rate≥80% to 100%) | A (Fresh weight inhibition rate≥80% to 100%) | A (Fresh weight inhibition rate≥80% to 100%) | A (Fresh weight inhibition rate≥80% to 100%)
CCc1nnc(NC(=O)c2ccc(S(C)(=O)=O)c(S(=O)(=O)C3CC3)c2Cl)o1 [Compound 3-423] | A (Fresh weight inhibition rate≥80% to 100%) | E (Fresh weight inhibition rate<20%) | A (Fresh weight inhibition rate≥80% to 100%) | E (Fresh weight inhibition rate<20%) | A (Fresh weight inhibition rate≥80% to 100%) | A (Fresh weight inhibition rate≥80% to 100%) | A (Fresh weight inhibition rate≥80% to 100%) | A (Fresh weight inhibition rate≥80% to 100%) | A (Fresh weight inhibition rate≥80% to 100%)
C=CCS(=O)(=O)c1c(S(C)(=O)=O)ccc(C(=O)Nc2nnc(C)o2)c1Cl [Compound 3-116] | A (Fresh weight inhibition rate≥80% to 100%) | E (Fresh weight inhibition rate<20%) | A (Fresh weight inhibition rate≥80% to 100%) | E (Fresh weight inhibition rate<20%) | A (Fresh weight inhibition rate≥80% to 100%) | A (Fresh weight inhibition rate≥80% to 100%) | C (Fresh weight inhibition rate≥40% to <60%) | A (Fresh weight inhibition rate≥80% to 100%) | A (Fresh weight inhibition rate≥80% to 100%)
